The target of data set [1] is T1, Papain (Carica papaya) (UniProt P00784).
T1 sequence (whole entry): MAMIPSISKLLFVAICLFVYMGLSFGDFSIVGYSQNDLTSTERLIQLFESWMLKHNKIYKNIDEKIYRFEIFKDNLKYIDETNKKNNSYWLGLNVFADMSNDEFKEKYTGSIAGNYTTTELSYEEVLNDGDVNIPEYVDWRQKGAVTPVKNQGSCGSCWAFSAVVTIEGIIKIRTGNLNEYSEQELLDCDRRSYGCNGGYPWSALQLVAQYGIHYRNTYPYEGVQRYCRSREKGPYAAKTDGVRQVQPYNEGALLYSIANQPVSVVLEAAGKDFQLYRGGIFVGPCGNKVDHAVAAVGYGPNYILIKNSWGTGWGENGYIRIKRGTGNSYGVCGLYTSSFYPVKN
The data set is described as follows: Inhibitory activity against papain; No detectab inactivation.

For data set [2], the target named is T2, Papain (Carica papaya, UniProt P00784).
T2 sequence (P00784 whole entry): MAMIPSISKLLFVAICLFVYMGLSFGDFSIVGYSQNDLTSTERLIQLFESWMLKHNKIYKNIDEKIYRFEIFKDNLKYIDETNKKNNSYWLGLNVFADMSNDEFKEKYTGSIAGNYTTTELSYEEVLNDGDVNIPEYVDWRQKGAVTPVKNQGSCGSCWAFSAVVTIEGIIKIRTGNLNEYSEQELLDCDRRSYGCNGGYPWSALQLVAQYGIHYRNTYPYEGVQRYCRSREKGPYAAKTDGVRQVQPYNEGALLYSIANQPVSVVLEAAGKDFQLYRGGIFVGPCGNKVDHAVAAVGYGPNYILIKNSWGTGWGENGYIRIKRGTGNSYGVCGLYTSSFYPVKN
In words: Inhibitory activity against papain; Weak competitive inhibitor.

Data set [3] can be described thus: Inhibition of hydrolysis of Z-Gly-NPby administration of the compound.
For data set [4], the target named is T1, Papain (Carica papaya). The data set is described as follows: Pseudo first order rate constant against papain.
The target of data set [5] is T2, Papain. The data set is described as follows: Inhibitory activity against papain.
The nature of data set [6]: Inhibition of hydrolysis of Z-Gly-NP by administration of the 1 uM compound; Markedly inhibited.
Substrate in data set [7]: O=C(O)CNC(=O)OCc1ccccc1
The data set is described as follows: Papain-catalyzed hydrolysis was expressed as Km.

As a reminder, the Ki is a measure of affinity in units of concentration, obtained from inhibition or displacement. Read a high Ki as weaker binding. As a reminder, the Km is the concentration of substrate that gives half-maximal velocity.

Activity calls are given as the source filed them. No cut-off for these calls is given here. Where a SMILES comes first, the peptide text is derived from it.

For `COC(=O)/C=C/C(Cc1ccccc1)NC(C)=O` (stereo not drawn), in data set [1], the inhibition result was “inactive”.

`C=CCNC(=O)C(Cc1ccccc1)NC(C)=O` (stereo not drawn) had an inhibitory constant (Ki) in data set [2] above 5 mM.

Molecule `CC(=O)N[C@@H](Cc1ccccc1)C(=O)NCC(N)=O` (Ac-Phe-Gly-NH2) returned a Ki in data set [3] of 4.7 mM.

The molecule `COC(=O)CCCNC(=O)C(Cc1ccccc1)NC(C)=O` (stereo not drawn) returned an inhibitory constant (Ki) in data set [2] above 5 mM.

On to `COC(=O)/C=C/CNC(=O)C(Cc1ccccc1)NC(C)=O` (stereo not drawn), for which the K2 in data set [4] turned out to be 0.00182 s⁻¹. In data set [5], this molecule had a Ki of 0.026 mM. In addition, in data set [6], the inhibition result was “Markedly inhibited”.

B1: Papain (Carica papaya), P00784 (protein)
chain: MAMIPSISKLLFVAICLFVYMGLSFGDFSIVGYSQNDLTSTERLIQLFESWMLKHNKIYKNIDEKIYRFEIFKDNLKYIDETNKKNNSYWLGLNVFADMSNDEFKEKYTGSIAGNYTTTELSYEEVLNDGDVNIPEYVDWRQKGAVTPVKNQGSCGSCWAFSAVVTIEGIIKIRTGNLNEYSEQELLDCDRRSYGCNGGYPWSALQLVAQYGIHYRNTYPYEGVQRYCRSREKGPYAAKTDGVRQVQPYNEGALLYSIANQPVSVVLEAAGKDFQLYRGGIFVGPCGNKVDHAVAAVGYGPNYILIKNSWGTGWGENGYIRIKRGTGNSYGVCGLYTSSFYPVKN
Take B1: in data set [7], the Km was determined as 10.3 µM.
